Laboratory results published in patent publication US20220081409A1, “PDE9 INHIBITOR AND USE THEREOF” (NANJING TRANSTHERA BIOSCIENCES CO., LTD., priority 2019, published 2022).

What was measured:
PDE9A2 enzyme = biological target: T1, PDE9A2 enzyme (Homo sapiens, UniProt O76083); assay: PDE9 enzymatic evaluation; format: biochemical; conditions: fluorescence reading 480 nm/535 nm
T1 construct: purchased BPS 60090
Protocol: Experimental Example 1: PDE9 Enzymatic Evaluation
Test samples: the compounds disclosed herein, prepared according to the corresponding examples of the present invention.
Preparation of the compounds: Compounds were formulated into 10 mM compound stock solution in DMSO for long term storage. The obtained compound stock solution was 100-fold diluted with DMSO to give 100 μM compound mother liquor, which was 3-fold diluted with DMSO to give 8-10 concentration gradients of diluted compound mother liquor (100×).
Incubation with compound: Diluted compound mother liquor was pipetted into a 384-well plate using an ultramicro-liquid pipetting system (Echo); 200 nL of the diluted compound mother liquor and 10 μL of PDE9A2 enzyme solution were added to each compound well; after centrifugation at 1000 rpm for 1 min, the mixtures were incubated at room temperature for 15 min. Subsequently, 10 μL of the substrate mixture was added, and after centrifugation at 1000 rpm for 1 min, the resulting mixture was incubated at room temperature with oscillating for 30 min. Finally, stop solution was added to end the reaction, and the resulting reaction system was incubated at room temperature with oscillating for 60 min. In the maximum reading well (Max), the compound was replaced by solvent; in the minimum reading well (Min), the compound and the enzyme solution were replaced by solvent.
Detection: the fluorescence readings (F) at 480 nm/535 nm were detected using a microplate reader.
Calculation: The inhibition rate was calculated according to the following formula and IC50 was fitted using GraphPad Prism 5.0: […]

[1] = Liver microsomal stability in rat liver microsomes; format: in vitro ADME; conditions: 0.5 mg protein/mL, 1 μM compound, 37° C.
Protocol: Experimental Example 2: Evaluation of Liver Microsomal Stability of Compounds Disclosed Herein
Test samples: the compounds disclosed herein and the compound I-8 of international patent application WO2017019723A1 (prepared by referring to the examples for synthesis in WO2017019723A1) having the following structural formula: […]
An appropriate amount of the compound was precisely weighed out and dissolved in DMSO to prepare a 5.0 mM stock solution. The 5.0 mM stock solution was diluted to 1.0 mM with DMSO, and then diluted with water to 10 μM compound working solution for later use (DMSO content in the reaction system: 0.1% v/v).
• (1) The liver microsomes (20 mg protein/mL) were taken out from a −80° C. refrigerator, pre-incubated on a 37° C. water bath thermostatic oscillator for 3 min, and thawed for use. • (2) A mixed solution of the incubation system (without compound and D-NADPH) was prepared according to “composition of the experimental incubation system” described above, and pre-incubated on a 37° C. water bath thermostatic oscillator for 2 min. • (3) Control group (without D-NADPH): 30 μL of water and 30 μL of compound working solution (10 μM) were added to 240 μL of the mixed solution of the incubation system in step (2), and the mixture was vortexed for 30 s and mixed well; the total volume of the mixture was 300 μL; the sample was duplicated. The mixture was placed on a 37° C. water bath thermostatic oscillator for incubation, and timing was started; the sampling was conducted at 0 min and 60 min. • (4) Sample group: 70 μL of […] solution (10 mM) and 70 μL of compound working solution (10 μM) were added to 560 μL of the mixed solution in step (2), and the total volume of the mixture was 700 μL; the mixture was vortexed for 30 s and mixed well; the sample was duplicated. The mixture was placed on a 37° C. water bath thermostatic oscillator for incubation, and timing was started; the sampling was conducted at 0 min, 5 min, 10 min, 20 min, 30 min and 60 min. • (5) The mixture was vortexed for 3 min, and centrifuged at 4000 rpm for 10 min. • (6) 50 μL of the supernatant was taken and added to 150 μL of water, and the resulting mixture was vortexed and mixed well before LC/MS/MS analysis.
The half-life (t1/2) and clearance (Cl) were calculated using the following first-order kinetic formula:
Vd=1/protein content in liver microsomes
Note: k denotes the slope of the logarithm of the remaining amount of a compound vs. time, Vd denotes apparent volume of distribution, and C0 denotes compound concentration at 0 h.
Experiment on Stability of the Compounds Disclosed Herein in Rat Liver Microsomes

human PDE9 [2] = biological target: T2, human PDE9 (Homo sapiens, UniProt O76083); conditions: background statement; cited from earlier work
T2 sequence (O76083 whole entry): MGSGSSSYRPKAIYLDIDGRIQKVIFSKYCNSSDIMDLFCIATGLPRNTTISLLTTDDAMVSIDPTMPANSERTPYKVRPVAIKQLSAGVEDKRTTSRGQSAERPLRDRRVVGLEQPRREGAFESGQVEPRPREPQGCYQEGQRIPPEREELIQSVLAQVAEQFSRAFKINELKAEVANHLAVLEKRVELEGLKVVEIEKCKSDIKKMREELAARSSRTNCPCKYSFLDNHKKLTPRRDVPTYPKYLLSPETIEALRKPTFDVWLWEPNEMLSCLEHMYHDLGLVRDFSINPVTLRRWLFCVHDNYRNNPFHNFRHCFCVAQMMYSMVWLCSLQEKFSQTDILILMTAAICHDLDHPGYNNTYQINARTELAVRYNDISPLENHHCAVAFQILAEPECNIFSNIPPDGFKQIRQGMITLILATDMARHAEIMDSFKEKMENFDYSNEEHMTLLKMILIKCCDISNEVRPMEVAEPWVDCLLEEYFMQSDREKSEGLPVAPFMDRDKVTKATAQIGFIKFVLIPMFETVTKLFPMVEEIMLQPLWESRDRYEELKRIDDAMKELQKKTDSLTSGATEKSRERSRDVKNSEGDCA

human PDE9 [3] = biological target: T2, human PDE9; conditions: substrate of PDE9, background statement; read-out: binding constant (Km); cited from earlier work

T1 sequence (O76083 1-533 isoform O76083-2): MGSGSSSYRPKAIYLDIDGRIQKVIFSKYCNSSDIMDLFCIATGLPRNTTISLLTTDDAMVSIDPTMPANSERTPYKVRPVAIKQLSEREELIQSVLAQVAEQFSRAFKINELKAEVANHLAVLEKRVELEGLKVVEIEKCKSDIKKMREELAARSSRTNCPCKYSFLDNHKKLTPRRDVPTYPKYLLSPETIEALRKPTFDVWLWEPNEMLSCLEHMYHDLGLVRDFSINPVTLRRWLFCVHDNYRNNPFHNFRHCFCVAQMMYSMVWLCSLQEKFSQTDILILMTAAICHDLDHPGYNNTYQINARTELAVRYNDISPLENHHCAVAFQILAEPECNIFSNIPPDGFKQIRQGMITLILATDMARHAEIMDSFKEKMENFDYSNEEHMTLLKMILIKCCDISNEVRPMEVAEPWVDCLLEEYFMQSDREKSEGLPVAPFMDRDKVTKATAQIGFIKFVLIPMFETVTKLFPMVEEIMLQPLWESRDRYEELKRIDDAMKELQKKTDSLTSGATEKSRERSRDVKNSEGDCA

Row | SMILES | IC50 (PDE9A2 enzyme) [nM] | half-life at 1 μM [1] [h] | microsomal CLint at 1 μM [1] [µL/min/mg] | inhibitory activity against PDE9 (human PDE9 [2]) | further results
1 | CNC(=O)c1ccc2[nH]c(=O)c(C#N)c(N3CCC4(CC3)CC4)c2c1 [Compound 96, 3-cyano-N-methyl-2-oxo-4-(6-azaspiro[2.5]octan-6-yl)-1,2-dihydroquinoline-6-carboxamide] | 5 | 3.22 | 7.2 | – | –
2 | CC(C)Cn1c(=O)n(C)c(=O)c2[nH]cnc21 [IBMX] | – | – | – | no inhibitory activity or low inhibitory activity | –
3 | CC(=O)Nc1ccc(-c2c[nH]c(=O)cn2)cc1 [SKF94120] | – | – | – | no inhibitory activity or low inhibitory activity | –
4 | Nc1nc2c(ncn2[C@@H]2O[C@@H]3COP(=O)(O)O[C@H]3[C@H]2O)c(=O)[nH]1 [cGMP, cyclic guanosine monophosphate] | – | – | – | – | Km (human PDE9 [3]): 0.17 µM
5 | OCCN(CCO)c1nc(N2CCCCC2)c2nc(N(CCO)CCO)nc(N3CCCCC3)c2n1 [dipyridamole] | – | – | – | no inhibitory activity or low inhibitory activity | –
6 | COc1ccc(C2CNC(=O)C2)cc1OC1CCCC1 (centres unmarked) [rolipram] | – | – | – | no inhibitory activity or low inhibitory activity | –
7 | CCOC(=O)C1=C[C@]2(CC)CCCN3CCc4c(n1c1ccccc41)[C@@H]32 [vinpocetine] | – | – | – | no inhibitory activity or low inhibitory activity | –

Now from value to molecule, other results behind:

Row | IC50 (PDE9A2 enzyme) [nM] | half-life at 1 μM [1] [h] | microsomal CLint at 1 μM [1] [µL/min/mg] | SMILES | inhibitory activity against PDE9 (human PDE9 [2]) | further results
8 | 8 | – | – | CCc1ccc2[nH]c(=O)c(C#N)c(N3CCC(C)(OC)CC3)c2c1 [Compound 107, 6-ethyl-4-(4-methoxy-4-methylpiperidin-1-yl)-2-oxo-1,2-dihydroquinoline-3-carbonitrile] | – | –
9 | 15 | 7.7 | 3 | COC1(C)CCN(c2c(C#N)c(=O)[nH]c3ccc(C(C)(C)O)cc23)CC1 [Compound 109, 6-(2-hydroxypropan-2-yl)-4-(4-methoxy-4-methylpiperidin-1-yl)-2-oxo-1,2-dihydroquinoline-3-carbonitrile] | – | –
10 | 2 | 2.82 | 8.2 | COC1(C)CCN(c2c(C#N)c(=O)[nH]c3ccc(C(O)C4CC4)cc23)CC1 (centres unmarked) [Compound 130, 6-(cyclopropyl(hydroxy)methyl)-4-(4-methoxy-4-methylpiperidin-1-yl)-2-oxo-1,2-dihydroquinoline-3-carbonitrile] | – | –
11 | 12 | 2.13 | 10.8 | COCCOc1ccc2[nH]c(=O)c(C#N)c(N3CCC(C)(OC)CC3)c2c1 [Compound 145, 4-(4-methoxy-4-methylpiperidin-1-yl)-6-(2-methoxyethoxy)-2-oxo-1,2-dihydroquinoline-3-carbonitrile] | – | –
12 | 12 | – | – | COC1(C)CCN(c2c(C#N)c(=O)[nH]c3ccc(C)cc23)CC1 [Compound 158, 4-(4-methoxy-4-methylpiperidin-1-yl)-6-methyl-2-oxo-1,2-dihydroquinoline-3-carbonitrile] | – | –
13 | 18 | – | – | COC1(C)CCN(c2c(C#N)c(=O)[nH]c3ccc(C(C)C)cc23)CC1 [Compound 179, 6-isopropyl-4-(4-methoxy-4-methylpiperidin-1-yl)-2-oxo-1,2-dihydroquinoline-3-carbonitrile] | – | –
14 | 8 | 0.955 | 24.2 | COC1(C)CCN(c2c(C#N)c(=O)[nH]c3ccc(Br)cc23)CC1 [Compound 180, 6-bromo-4-(4-methoxy-4-methylpiperidin-1-yl)-2-oxo-1,2-dihydroquinoline-3-carbonitrile] | – | –
15 | – | 0.792 | 29.2 | N#Cc1c(N2CCCCCC2)c2ccccc2[nH]c1=O [Compound I-8, reference compound] | – | –
